According to ChEMBL document CHEMBL3745684, “Synthesis of a norcantharidin-tethered guanosine: Protein phosphatase-1 inhibitors that change alternative splicing” (Bioorg Med Chem Lett, 2016):
The source made the active and inactive calls. The calls are words filed in the database; no cut-off is given here.

Key:
Assay type in all cases: cell-based
HEK293 [1] = test: Inhibition of protein phosphatase-1 in human HEK293 cells assessed as increase in exon 7 inclusion in the survival of motor neuron 2 gene at 10 to 100 uM after 14 to 16 hrs by RT-PCR analysis
HEK293 [2] = test: Inhibition of protein phosphatase-1 in human HEK293 cells assessed as increase in exon 7 inclusion in the survival of motor neuron 2 gene after 14 to 16 hrs by RT-PCR analysis
HEK293 [3] = test: Inhibition of protein phosphatase-1 in human HEK293 cells assessed as exon 7 inclusion in the survival of motor neuron 2 gene at 1 to 100 uM after 14 to 16 hrs by RT-PCR analysis

Row | Compound | Activity (HEK293 [1]) [%] | Activity (HEK293 [2]) | inhibition (HEK293 [3])
1 | CO[C@@H]1[C@H](OP(=O)(O)OCCc2ccc(CCN(C)C(=O)[C@H]3[C@@H](C(=O)O)[C@@H]4CC[C@H]3O4)cc2)[C@@H](CO)O[C@H]1n1cnc2c(=O)[nH]c(N)nc21 (mixture of isomers) | 25 | Dose-dependent effect | 
2 | CNCCc1ccc(CCO)cc1 |  |  | inactive
